From the supplement of paper PMC10307832

Legend:
Assay in all cases: relative viability (nuclei count vs DMSO), 5 days (fraction); higher = more cells survive
[1] = compound: Cn1cc(-c2cnn3c(N)c(Br)c([C@@H]4CCCNC4)nc23)cn1 + CC(=O)Nc1cccc(-n2c(=O)n(C3CC3)c(=O)c3c(Nc4ccc(I)cc4F)n(C)c(=O)c(C)c32)c1 [Trametinib] (partner 0.02 µM)
Outline: (§1)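 Cells from lung cancer lines were seeded into 1536-well plates and, one day later, dosed by pin tool. Treatments were either a single drug or a fixed dose of an anchor drug with five library-drug doses (not always all listed) in √10 steps. After 5 days, nuclei were stained in a one-step fixation (final 0.05% Triton X-100, 1% formaldehyde, 1 ug/ml Hoechst) and counted on 4× images, and relative viability is the treated-to-vehicle nuclei ratio, as the median of duplicate plates.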

[2] = compound: Cn1cc(-c2cnn3c(N)c(Br)c([C@@H]4CCCNC4)nc23)cn1 + COc1cccc2cc(-c3nc([C@H]4CC[C@H](C(=O)O)CC4)n4ncnc(N)c34)[nH]c12 [OSI-027] (partner 0.5 µM)
Outline: as §1

[3] = compound: Cn1cc(-c2cnn3c(N)c(Br)c([C@@H]4CCCNC4)nc23)cn1 + CS(=O)(=O)CCNCc1ccc(-c2ccc3ncnc(Nc4ccc(OCc5cccc(F)c5)c(Cl)c4)c3c2)o1 [Lapatinib] (partner 2 µM)
Outline: as §1

[4] = compound: Cn1cc(-c2cnn3c(N)c(Br)c([C@@H]4CCCNC4)nc23)cn1 + C[C@]1(O)C[C@@H](c2nc(-c3ccc4ccc(-c5ccccc5)nc4c3)c3c(N)nccn32)C1 [Linsitinib] (partner 1 µM)
Outline: as §1

Row | Cell Line | relative viability ([1]; first compound 0.05 µM) | relative viability ([1]; first compound 0.1581 µM) | relative viability ([1]; first compound 0.5 µM) | relative viability ([1]; first compound 1.581 µM) | relative viability ([1]; first compound 5 µM) | relative viability ([2]; first compound 0.05 µM) | relative viability ([2]; first compound 0.5 µM) | relative viability ([2]; first compound 1.581 µM) | relative viability ([2]; first compound 5 µM) | relative viability ([3]; first compound 0.05 µM) | relative viability ([3]; first compound 0.1581 µM) | relative viability ([3]; first compound 0.5 µM) | relative viability ([3]; first compound 1.581 µM) | relative viability ([3]; first compound 5 µM) | relative viability ([4]; first compound 0.05 µM) | relative viability ([4]; first compound 0.1581 µM) | relative viability ([4]; first compound 0.5 µM) | relative viability ([4]; first compound 1.581 µM) | relative viability ([4]; first compound 5 µM) | relative viability ([2]; first compound 0.1581 µM)
1 | 201T | 0.692 | 0.751 | 0.687 | 0.722 | 0.7 | 0.777 | 0.656 | 0.532 | 0.241 | 1 | 1.09 | 1.02 | 0.951 | 1.11 | 1.08 | 1.05 | 1.12 | 0.97 | 0.936 | 
2 | A549 |  |  |  |  |  |  |  |  |  | 1.03 | 1.11 | 0.909 | 0.795 | 0.643 | 0.653 | 0.664 | 0.48 | 0.588 | 0.43 | 
3 | A-427 | 0.756 | 0.675 | 0.704 | 0.651 | 0.341 | 0.495 | 0.453 | 0.357 | 0.31 | 0.979 | 1.14 | 0.986 | 0.839 | 0.959 | 1.12 | 1.15 | 1.06 | 1.06 | 1 | 0.474
4 | ABC-1 |  |  |  |  |  | 0.518 | 0.382 | 0.39 | 0.264 | 1.18 | 1.18 | 1.18 | 1.26 | 1.04 | 0.801 | 1.01 | 0.781 | 0.716 | 0.288 | 0.58
5 | BEN | 1.19 | 1.01 | 0.907 | 0.966 | 0.881 | 0.481 | 0.251 | 0.572 | 0.295 | 0.84 | 0.762 | 0.655 | 0.736 | 0.516 | 1.04 | 0.977 | 0.918 | 0.686 | 0.738 | 0.288
6 | CAL-12T | 0.288 | 0.346 | 0.315 | 0.33 | 0.278 | 0.554 | 0.682 | 0.266 | 0.121 | 0.713 | 0.735 | 0.723 | 0.618 | 0.395 | 0.786 | 0.929 | 0.809 | 0.616 | 0.262 | 0.841
7 | COR-L23 | 0.694 | 0.671 | 0.582 | 0.437 | 0.232 | 0.813 | 0.671 | 0.393 | 0.255 | 0.966 | 1.26 | 1.03 | 0.471 | 0.445 | 0.835 | 1.16 | 1.05 | 0.688 | 0.363 | 0.927
8 | COR-L 105 | 0.424 | 0.436 | 0.414 | 0.417 | 0.422 | 0.632 | 0.688 | 0.587 | 0.487 | 0.323 | 0.386 | 0.393 | 0.354 | 0.311 | 0.898 | 0.719 | 0.89 | 0.878 | 0.645 | 0.818
9 | Calu-6 |  |  |  |  |  |  |  |  |  | 1.2 | 0.745 | 0.678 | 0.329 | 0.193 | 0.898 | 1.1 | 0.945 | 0.52 | 0.176 | 
10 | ChaGo-K-1 | 0.926 | 0.925 | 0.874 | 0.806 | 0.972 | 0.557 | 0.61 | 0.535 | 0.642 |  |  |  |  |  |  |  |  |  |  | 0.638
11 | EBC-1 |  |  |  |  |  |  |  |  |  | 0.207 | 0.183 | 0.24 | 0.223 | 0.192 | 0.937 | 1.09 | 0.933 | 0.884 | 0.799 | 
12 | EKVX | 0.445 | 0.317 | 0.413 | 0.377 | 0.409 | 0.676 | 0.733 | 0.71 | 0.633 | 0.204 | 0.215 | 0.192 | 0.193 | 0.184 | 1.02 | 1.06 | 0.946 | 0.68 | 0.874 | 0.75
13 | EMC-BAC-2 | 0.885 | 0.664 | 0.927 | 0.878 | 0.515 | 0.368 | 0.408 | 0.37 | 0.355 | 0.843 | 0.987 | 0.961 | 0.852 | 0.889 | 0.834 | 0.904 | 0.849 | 0.663 | 0.836 | 0.367
14 | EPLC-272H | 0.276 | 0.273 | 0.286 | 0.272 | 0.218 | 0.256 | 0.359 | 0.224 | 0.166 | 0.849 | 0.991 | 0.843 | 0.688 | 0.674 | 1.26 | 1.18 | 1.24 | 1.25 | 1.12 | 0.309
15 | H3255 | 0.694 | 0.534 | 0.668 | 0.633 | 0.405 | 0.744 | 0.601 | 0.584 | 0.481 | 0.25 | 0.214 | 0.247 | 0.264 | 0.204 | 0.989 | 1.05 | 0.929 | 0.769 | 0.684 | 0.523
16 | HARA | 0.762 | 0.474 | 0.482 | 0.532 | 0.344 | 0.469 | 0.685 | 0.408 | 0.149 | 0.728 | 0.873 | 1.08 | 0.626 | 0.179 | 1.11 | 1.03 | 1.23 | 0.761 | 0.402 | 0.606
17 | HCC-15 | 0.38 | 0.421 | 0.379 | 0.393 | 0.409 | 0.781 | 0.682 | 0.566 | 0.533 | 0.952 | 0.949 | 0.648 | 0.811 | 0.827 | 0.98 | 0.997 | 0.824 | 0.838 | 0.829 | 0.739
18 | HCC-44 | 0.998 | 1.09 | 1.12 | 1.08 | 1.13 |  | 0.683 | 0.414 | 0.434 | 1.01 | 1.15 | 1.1 | 0.8 | 0.968 | 0.685 | 0.872 | 0.821 | 0.65 | 0.631 | 0.604
